Test results as given in ChEMBL document CHEMBL1153182, “Novel enoyl-ACP reductase (FabI) potential inhibitors of Escherichia coli from Chinese medicine monomers” (Bioorg Med Chem Lett, 2010).
Values after ≈ are worked out from the molar mass of the structure shown. Active and inactive are the calls of the source. The rule behind the calls is not given here.

How the values were obtained:
[1] = molecular target: T1, Enoyl-[acyl-carrier-protein] reductase [NADH] FabI (Escherichia coli K-12) (UniProt P0AEK4); test: Inhibition of Escherichia coli MG1655 enoyl-ACP reductase overexpressed in Escherichia coli M15 assessed as oxidation of NADH to NAD+ at 5 uM after 5 mins
T1 sequence (whole entry): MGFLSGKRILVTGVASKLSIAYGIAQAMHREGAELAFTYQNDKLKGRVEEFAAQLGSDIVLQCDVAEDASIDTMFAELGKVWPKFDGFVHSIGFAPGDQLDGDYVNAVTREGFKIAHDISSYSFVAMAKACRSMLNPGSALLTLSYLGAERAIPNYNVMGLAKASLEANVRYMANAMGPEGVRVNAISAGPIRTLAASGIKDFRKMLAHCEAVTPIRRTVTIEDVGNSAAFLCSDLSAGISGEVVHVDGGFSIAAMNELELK

[2] = system: Escherichia coli; test: Antibacterial activity against Escherichia coli M15 containing pQE30 expression vector; format: functional
[3] = system: Escherichia coli; test: Antibacterial activity against Escherichia coli MG1655; format: functional
[4] = system: Escherichia coli; test: Antibacterial activity against Escherichia coli M15; format: functional
[5] = system: Escherichia coli; test: Antibacterial activity against fabI-overexpressing Escherichia coli M15; format: functional
[6] = molecular target: T2, Enoyl-[acyl-carrier-protein] reductase [NADH] FabI (Escherichia coli K-12, UniProt P0AEK4); test: Inhibition of Escherichia coli MG1655 enoyl-ACP reductase overexpressed in Escherichia coli M15 assessed as oxidation of NADH to NAD+ after 5 mins
T2 sequence (P0AEK4 whole entry): T1 sequence (whole entry)

[7] = molecular target: T1, Enoyl-[acyl-carrier-protein] reductase [NADH] FabI (Escherichia coli K-12); test: Uncompetitive inhibition of Escherichia coli MG1655 enoyl-ACP reductase overexpressed in Escherichia coli M15 assessed as oxidation of NADH to NAD+ after 5 mins by Lineweaver-Burke plot
[8] = system: Escherichia coli; test: Ratio of MIC90 for fabI-overexpressing Escherichia coli M15 to MIC90 for Escherichia coli M15; format: functional
[9] = system: Escherichia coli; test: Ratio of MIC90 for fabI-overexpressing Escherichia coli M15 to MIC90 for Escherichia coli M15 containing pQE30 expression vector; format: functional

| Compound | Activity [1] | MIC90 [2] | MIC90 [3] | MIC90 [4] | MIC90 [5] | Ki [6] | Activity [7] | Ratio [8] | Ratio [9] |
| --- | --- | --- | --- | --- | --- | --- | --- | --- | --- |
| OC[C@H]1O[C@@H](Oc2cc(O)cc(/C=C/c3ccc(O)cc3)c2)[C@H](O)[C@@H](O)[C@@H]1O | Active | – | – | – | – | – | – | – | – |
| O=c1c(-c2ccc(O)cc2)coc2cc(O)cc(O)c12 [GENISTEIN] | Active | 378 µg/mL (≈ 1400 µM) | 378 µg/mL (≈ 1400 µM) | 378 µg/mL (≈ 1400 µM) | > 500 µg/mL | – | – | – | – |
| O=C(N[C@H](CO)[C@H](O)c1ccc([N+](=O)[O-])cc1)C(Cl)Cl [CHLORAMPHENICOL] | – | 8 µg/mL (≈ 24.8 µM) | 8 µg/mL (≈ 24.8 µM) | 8 µg/mL (≈ 24.8 µM) | 8 µg/mL (≈ 24.8 µM) | – | – | – | – |
| CN[C@@H]1[C@H](O)[C@H](NC)[C@H]2O[C@@]3(O)C(=O)C[C@@H](C)O[C@H]3O[C@@H]2[C@H]1O [SPECTINOMYCIN] | – | 20 µg/mL (≈ 60.2 µM) | 20 µg/mL (≈ 60.2 µM) | 20 µg/mL (≈ 60.2 µM) | 20 µg/mL (≈ 60.2 µM) | – | – | – | – |
| CC(C)=CCOc1c2occc2cc2ccc(=O)oc12 | Active | – | – | – | – | – | – | – | – |
| GENTAMICIN | – | 8 µg/mL | 8 µg/mL | 8 µg/mL | 8 µg/mL | – | – | – | – |
| O=c1cc(-c2ccc(O)c(O)c2)oc2cc(O)cc(O)c12 [LUTEOLIN] | – | – | – | – | – | 7.05 µM | Active | – | – |
| CC[C@H]1OC(=O)[C@H](C)[C@@H](O[C@H]2C[C@@](C)(OC)[C@@H](O)[C@H](C)O2)[C@H](C)[C@@H](O[C@@H]2O[C@H](C)C[C@H](N(C)C)[C@H]2O)[C@](C)(O)C[C@@H](C)C(=O)[C@H](C)[C@@H](O)[C@]1(C)O [ERYTHROMYCIN] | – | 16 µg/mL (≈ 21.8 µM) | 16 µg/mL (≈ 21.8 µM) | 16 µg/mL (≈ 21.8 µM) | 16 µg/mL (≈ 21.8 µM) | – | – | – | – |
| COc1cc(/C=C/C(=O)CC(=O)/C=C/c2ccc(O)c(OC)c2)ccc1O [CURCUMIN] | – | 73.7 µg/mL (≈ 200 µM) | 73.7 µg/mL (≈ 200 µM) | 73.7 µg/mL (≈ 200 µM) | > 500 µg/mL | 15 µM | Active | 7 | 7 |
| CO[C@H]1/C=C/O[C@@]2(C)Oc3c(C)c(O)c4c(O)c(c(/C=N/N5CCN(C)CC5)c(O)c4c3C2=O)NC(=O)/C(C)=C\C=C\[C@H](C)[C@H](O)[C@@H](C)[C@@H](O)[C@@H](C)[C@H](OC(C)=O)[C@@H]1C [RIFAMPIN] | – | 128 µg/mL (≈ 156 µM) | 128 µg/mL (≈ 156 µM) | 128 µg/mL (≈ 156 µM) | 128 µg/mL (≈ 156 µM) | – | – | – | – |
| Oc1cc(Cl)ccc1Oc1ccc(Cl)cc1Cl [TRICLOSAN] | – | 2.9 µg/mL (≈ 10 µM) | 2.9 µg/mL (≈ 10 µM) | 2.9 µg/mL (≈ 10 µM) | > 500 µg/mL | – | – | – | – |
